Measured values taken from US20140303367A1, “Methods for Synthesizing Molybdopterin Precursor Z Derivatives” (Alexion Pharma International Sàrl, priority 2011, published 2014).

Key:
[1] = test system: human apo-sulfite oxidase; experiment: In vitro synthesis of Moco from cPMP (conversion into MPT, molybdate insertion, reconstitution of apo-sulfite oxidase); type: biochemical; details: FIG. 1
Source text: In vitro synthesis of Moco was compared using samples of synthetic precursor Z (cPMP) and cPMP purified from E. coli. Moco synthesis also involved the use of the purified components E. coli MPT synthase, gephyrin, molybdate, ATP, and apo-sulfite oxidase. See U.S. Pat. No. 7,504,095 and “Biosynthesis and molecular biology of the molybdenum cofactor (Moco)” in Metal Ions in Biological Systems, Mendel, Ralf R. and Schwarz, Günter, Informa Plc, 2002, Vol. 39, pages 317-68. The assay is based on the conversion of cPMP into MPT, the subsequent molybdate insertion using recombinant gephyrin and ATP, and finally the reconstitution of human apo-sulfite oxidase.

[2] = target: MPT synthase from E. coli (Escherichia coli, UniProt P30748+P30749); experiment: In vitro synthesis of MPT from cPMP; type: biochemical; details: FIGS. 2 and 3; for conversion of cPMP into MPT: all samples
Sequence of MPT synthase from E. coli (P30749 whole entry): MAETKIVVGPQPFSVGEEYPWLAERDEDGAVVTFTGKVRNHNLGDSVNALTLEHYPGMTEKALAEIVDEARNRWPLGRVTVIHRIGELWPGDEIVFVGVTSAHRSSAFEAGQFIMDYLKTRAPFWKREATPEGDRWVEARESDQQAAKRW
Sequence of MPT synthase from E. coli (P30748 whole entry): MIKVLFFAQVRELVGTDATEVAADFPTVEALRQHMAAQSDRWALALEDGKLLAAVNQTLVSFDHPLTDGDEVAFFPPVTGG
Source text: In vitro synthesis of MPT was compared using samples of synthetic precursor Z (cPMP) and cPMP purified from E. coli. MPT synthesis also involved the use of in vitro assembled MPT synthase from E. coli. See U.S. Pat. No. 7,504,095 and “Biosynthesis and molecular biology of the molybdenum cofactor (Moco)” in Metal Ions in Biological Systems, Mendel, Ralf R. and Schwarz, Günter, Informa Plc, 2002, Vol. 39, pages 317-68.

For `Nc1nc2c(c(=O)[nH]1)N[C@@H]1[C@H](N2)O[C@@H]2COP(=O)(O)O[C@@H]2C1(O)O` [synthetic cPMP, (4aR,5aR,11aR,12aS)-1,3,2-Dioxaphosphorino[4′,5′:5,6]pyrano[3,2-g]pteridin-10(4H)-one,8-amino-4a,5a,6,9,11,11a,12,12a-octahydro-2,12,12-trihydroxy-2-oxide], the Moco synthesis ([1]; E. coli MPT synthase, gephyrin, molybdate, ATP, apo-sulfite oxidase) was “confirmed”, the “Moco conversion in comparison to E. coli purified cPMP” value [1] was “no differences” and the MPT synthesis ([2]; in vitro assembled MPT synthase from E. coli, three repetitions) was “confirmed”. For the same compound, the “conversion of cPMP into MPT” value ([2]; in vitro) was “linear conversion” and the “MPT conversion compared to E. coli purified cPMP” value ([2]; in vitro, three repetitions) was “no apparent differences”.

For `Nc1nc(=O)c2c([nH]1)N[C@@H]1O[C@@H]3COP(=O)(O)O[C@@H]3C(O)(O)[C@@H]1N2` [E. coli purified cPMP, reference compound], the “conversion of cPMP into MPT” value ([2]; in vitro) was “linear conversion”.
